Measured values: patent publication US7632845B2, “Phenyl quinolines and their use as estrogenic agents” (Wyeth, priority 2003, dated 2009)

Experiments:
ERβ = biological target: T1, ERβ (Homo sapiens, UniProt Q92731); assay: Competition with [3H]-17β-estradiol for ERβ ligand binding domain; settings: for IC50: crude E. coli lysate expressing human ERβ LBD (D, E, & F), 2 nM [3H]-17β-estradiol, 5-15 hours at room temperature; for α/β: receptor selectivity, ratio ERα IC50 / ERβ IC50
T1 construct: made in house; host or cells: E. coli
Experimental: (§1) Representative examples of the invention were evaluated for their ability to compete with 17β-estradiol for both ERα and ERβ. This test procedure provides the methodology for one to determine whether a particular compound binds to the estrogen receptor (and is therefore “estrogenic”) and whether there is selectivity for ERα or ERβ. […] 17β-estradiol is included as a standard reference for compalison. The procedure used is briefly described below. A crude lysate of E. coli expressing the estrogen receptor ligand binding domains (D, E, & F) of human ERα or ERβ was prepared. Both receptors and compounds were diluted in 1× Dulbecco's PBS (DPBS) supplemented with 1 mM EDTA. Using a high binding masked microtiter plate, 100 uL of receptor (1 uG/well) was combined with 2 nM [^3H]-17β-estradiol and various concentrations of compound. After between 5 and 15 hours at room temperature, the plates were washed with DPBS/1 mM EDTA and bound radioactivity determined by liquid scintillation counting.

ERα = biological target: T2, ERα (Homo sapiens, UniProt P03372); assay: Competition with [3H]-17β-estradiol for ERα ligand binding domain; settings: crude E. coli lysate expressing human ERα LBD (D, E, & F); 2 nM [3H]-17β-estradiol; 5-15 hours at room temperature
T2 construct: made in house; host or cells: E. coli
T2 sequence (P03372 311-547 limits assumed): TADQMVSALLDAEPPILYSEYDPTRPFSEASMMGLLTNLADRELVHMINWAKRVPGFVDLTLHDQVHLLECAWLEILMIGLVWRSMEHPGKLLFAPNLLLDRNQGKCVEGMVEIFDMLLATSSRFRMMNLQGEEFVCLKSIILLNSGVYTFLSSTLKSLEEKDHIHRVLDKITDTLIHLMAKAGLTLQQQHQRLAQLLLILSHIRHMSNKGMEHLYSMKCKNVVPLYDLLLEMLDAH
Experimental: as §1

T1 sequence (Q92731 264-498 limits assumed): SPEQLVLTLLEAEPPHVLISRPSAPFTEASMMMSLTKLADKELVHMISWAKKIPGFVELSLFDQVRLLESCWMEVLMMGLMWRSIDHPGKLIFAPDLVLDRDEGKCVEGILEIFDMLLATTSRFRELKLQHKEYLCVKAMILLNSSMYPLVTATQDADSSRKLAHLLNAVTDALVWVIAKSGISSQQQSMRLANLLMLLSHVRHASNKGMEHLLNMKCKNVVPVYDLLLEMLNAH

Structure (SMILES) | IC50 (ERβ) [nM] | α/β (ERβ) | IC50 (ERα) [nM]
Oc1ccc2nc(-c3ccc(O)c(F)c3)cc(-c3nccs3)c2c1 [Cpd 18, 2-(3-Fluoro-4-hydroxyphenyl)-4-thiazol-2-yl-quinolin-6-ol] | 208 | 10 | 2160
Oc1ccc2nc(-c3ccc(O)c(F)c3)cc(-c3ccccc3)c2c1 [Cpd 20, 2-(3-Fluoro-4-hydroxyphenyl)-4-phenylquinolin-6-ol] | 128 | 11 | 1380
Cc1ccc(-c2cc(-c3ccc(O)c(F)c3)nc3ccc(O)cc23)cc1 [Cpd 21, 2-(3-Fluoro-4-hydroxyphenyl)-4-(4-methylphenyl)quinolin-6-ol] | 112 | 26 | 2920
Oc1ccc2nc(-c3ccc(O)c(F)c3)cc(-c3ccc(F)cc3)c2c1 [Cpd 22, 2-(3-Fluoro-4-hydroxyphenyl)-4-(4-fluorophenyl)quinolin-6-ol] | 33 | 18 | 591
Oc1ccc2nc(-c3ccc(O)c(F)c3)cc(-c3ccc(Cl)cc3)c2c1 [Cpd 23, 4-(4-Chlorophenyl)-2-(3-fluoro-4-hydroxyphenyl)quinolin-6-ol] | 146 | >6 | > 1000
N#Cc1ccc(-c2cc(-c3ccc(O)c(F)c3)nc3ccc(O)cc23)cc1 [Cpd 24, 4-(4-Cyanophenyl)-2-(3-fluoro-4-hydroxyphenyl)quinolin-6-ol] | 53 | 34 | 1810
Oc1ccc2nc(-c3ccc(O)c(F)c3)cc(-c3ccc(C(F)(F)F)cc3)c2c1 [Cpd 25, 2-(3-Fluoro-4-hydroxyphenyl)-4-(4-trifluoromethylphenyl)quinolin-6-ol] | > 5000 | – | > 5000
Oc1ccc2nc(-c3ccc(O)c(F)c3)cc(-c3ccsc3)c2c1 [Cpd 26, 2-(3-Fluoro-4-hydroxyphenyl)-4-thiophen-3-yl-quinolin-6-ol] | 75 | 12 | 868
Oc1ccc2nc(-c3ccc(O)c(F)c3)cc(-c3ccncc3)c2c1 [Cpd 27, 2-(3-Fluoro-4-hydroxyphenyl)-4-(4-pyridinyl)quinolin-6-ol] | 78 | >12 | > 1000
Oc1ccc2nc(-c3ccc(O)c(F)c3)cc(-c3cncnc3)c2c1 [Cpd 28, 2-(3-Fluoro-4-hydroxyphenyl)-4-(5-pyrimidinyl)quinolin-6-ol] | 968 | 3 | 3310
Oc1ccc(-c2ccc3c(Cl)c(O)ccc3n2)cc1 [Cpd 31, 5-Chloro-2-(4-hydroxyphenyl)quinolin-6-ol] | 38 | 22 | 840
Oc1ccc(-c2ccc3c(Br)c(O)ccc3n2)cc1 [Cpd 32, 5-Bromo-2-(4-hydroxyphenyl)quinolin-6-ol] | 90 | 13 | 1190
Oc1ccc(-c2nc3ccc(O)cc3c(Br)c2Cl)cc1 [Cpd 35a, 4-Bromo-3-chloro-2-(4-hydroxyphenyl)quinolin-6-ol] | 1.25 | 62 | 78
Oc1ccc2nc(-c3ccc(O)c(F)c3)c(Cl)c(Br)c2c1 [Cpd 35b, 4-Bromo-3-chloro-2-(3-fluoro-4-hydroxyphenyl)quinolin-6-ol] | 3.7 | 24 | 90
Oc1ccc(-c2nc3ccc(O)cc3c(-c3ccc(F)cc3)c2Cl)cc1 [Cpd 36, 3-Chloro-4-(4-fluorophenyl)-2-(4-hydroxyphenyl)quinolin-6-ol] | 244 | 1.4 | 340
N#Cc1c(Cl)c(-c2ccc(O)c(F)c2)nc2ccc(O)cc12 [Cpd 37, 3-Chloro-4-cyano-2-(3-fluoro-4-hydroxyphenyl)quinolin-6-ol] | 26 | 12 | 318
Oc1cc(Br)c2nc(-c3ccc(O)c(F)c3)cc(Cl)c2c1 [Cpd 44, 8-Bromo-4-chloro-2-(3-fluoro-4-hydroxyphenyl)-quinolin-6-ol] | 0.54 | 57 | 31
Oc1cc(Cl)c2nc(-c3ccc(O)c(F)c3)cc(Br)c2c1 [Cpd 45a, 4-Bromo-8-chloro-2-(3-fluoro-4-hydroxyphenyl)quinolin-6-ol] | 0.35 | 53 | 18.7
Oc1cc(Br)c2nc(-c3ccc(O)c(F)c3)cc(Br)c2c1 [Cpd 45b, 4,8-Dibromo-2-(3-fluoro-4-hydroxyphenyl)quinolin-6-ol] | 1.7 | 7 | 11.6
N#Cc1cc(-c2ccc(O)c(F)c2)nc2c(Cl)cc(O)cc12 [Cpd 47, 8-Chloro-4-cyano-2-(3-fluoro-4-hydroxyphenyl)quinolin-6-ol] | 1.7 | 113 | 192
C#Cc1cc(-c2ccc(O)c(F)c2)nc2c(Cl)cc(O)cc12 [Cpd 48, 8-Chloro-4-ethynyl-2-(3-fluoro-4-hydroxyphenyl)quinolin-6-ol] | 0.75 | 50 | 37
CCCCC#Cc1cc(-c2ccc(O)c(F)c2)nc2c(Cl)cc(O)cc12 [Cpd 49, 8-Chloro-2-(3-fluoro-4-hydroxyphenyl)-4-hex-1-ynylquinolin-6-ol] | 21 | 14 | 304
C=Cc1cc(-c2ccc(O)c(F)c2)nc2c(Cl)cc(O)cc12 [Cpd 50, 8-Chloro-2-(3-fluoro-4-hydroxyphenyl)-4-vinylquinolin-6-ol] | 0.95 | 79 | 75
N#Cc1ccc(-c2cc(-c3ccc(O)c(F)c3)nc3c(Cl)cc(O)cc23)cc1 [Cpd 51, 8-Chloro-4-(4-cyanophenyl)-2-(3-fluoro-4-hydroxyphenyl)quinolin-6-ol] | 37 | 56 | 2070
COc1ccc(-c2cc(-c3ccc(O)c(F)c3)nc3c(Cl)cc(O)cc23)cc1 [Cpd 52, 8-Chloro-2-(3-fluoro-4-hydroxyphenyl)-4-(4-methoxyphenyl)quinolin-6-ol] | 13 | 15 | 195
N#Cc1cc(O)cc2c(Cl)cc(-c3ccc(O)c(F)c3)nc12 [Cpd 56, 4-Chloro-8-cyano-2-(3-fluoro-4-hydroxyphenyl)quinolin-6-ol] | 1.1 | 105 | 116
N#Cc1cc(O)cc2c(Br)cc(-c3ccc(O)c(F)c3)nc12 [Cpd 57, 4-Bromo-8-cyano-2-(3-fluoro-4-hydroxyphenyl)quinolin-6-ol] | 1.4 | 61 | 86
C#Cc1cc(-c2ccc(O)c(F)c2)nc2c(C#N)cc(O)cc12 [Cpd 58, 8-Cyano-4-ethynyl-2-(3-fluoro-4-hydroxyphenyl)quinolin-6-ol] | 1.3 | 67 | 87
N#Cc1ccc(-c2cc(O)cc3c(Cl)cc(-c4ccc(O)c(F)c4)nc23)cc1 [Cpd 61, 4-Chloro-8-(4-cyanophenyl)-2-(3-fluoro-4-hydroxyphenyl)quinolin-6-ol] | 13 | 40 | 522
